Assay results from PubChem BioAssay (NCI).
Several values for one entry are separate records, joined by “and”; a condition that tells them apart may be missing. Identical values can stand only once.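 Step 1: Grow cells in 96-well plates. Step 2: Expose to compound for 48 hours at 5 concentrations. Step 3: Interpolate endpoints linearly; if unreached, use highest concentration. GI50 is the concentration that inhibits growth by half. TGI denotes the concentration required for complete inhibition of growth.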

Legend:
Assay in all cases: NCI tumour cell line growth inhibition, 48 h
[1] = test system: MDA-MB-231 breast
[2] = test system: DLD-1 colon
[3] = test system: DMS 273 small cell lung
[4] = test system: HOP-18 NSCLC
[5] = test system: KM20L2 colon
[6] = test system: M19-MEL melanoma
[7] = test system: P388 leukemia
[8] = test system: P388/ADR leukemia
[9] = test system: SN12K1 renal
[10] = test system: SNB-78 CNS
[11] = test system: XF 498 CNS
[12] = test system: DMS 114 small cell lung
[13] = test system: LXFL 529 NSCLC
[14] = test system: RXF-631 renal

With `Cc1ccc([N+](=O)[O-])cc1S(=O)(=O)Nc1ccc(C2=NOC(c3ccccc3O)C2)cc1` (configuration not stated) the TGI [1] was > 100 µM.
`CCO[C@]12CCC[C@H]1[C@@H]1C(=O)c3ccccc3C(=O)C1=C(C)O2` was tested, and the TGI [1] was > 100 µM.
For `O=C(NC(Cc1ccc(I)cc1)C(=O)O)c1ccc(Cl)cc1` (configuration not stated), the TGI [2] was > 100 µM, the TGI [3] was > 100 µM and the TGI [4] was > 100 µM. For the same molecule, the TGI [5] was > 100 µM, the TGI [6] was > 100 µM and the TGI [7] was > 100 µM. The TGI [8] was > 100 µM, the TGI [9] was > 100 µM and the TGI [10] was > 100 µM. The TGI [11] was > 100 µM.
In the case of `NCCNCCNc1ccc(NCCNCCN)c2c1C(=O)c1c(O)ccc(O)c1C2=O`, the TGI [1] was > 100 µM.
For `CNC(C)Cc1ccccc1OC` (configuration not stated), the TGI [2] was > 100 µM, the TGI [12] was > 100 µM and the TGI [3] was > 100 µM. The TGI [4] was > 100 µM, the TGI [5] was > 100 µM and the TGI [13] was > 100 µM. The TGI [14] was > 100 µM, the TGI [10] was > 100 µM and the TGI [11] was > 100 µM.
In the case of `c1c2c(cc3c1OCO3)-c1cc3ccc4c(c3c[n+]1CC2)OCO4`, the TGI [1] was > 6.86 µM.
For `C[N+](C)(C)CCN[N+]1(C)CCCc2ccccc21` (configuration not stated), the TGI [1] was > 100 µM.
In the case of `CC1CC(Br)C(=O)O1` (configuration not stated), the TGI [1] was > 100 µM.
With `COC(=O)/C=C1\CCCN1CCc1cc2c(cc1CC#N)OCO2` the TGI [1] was > 100 µM.
For `O=C1OC2(OC2c2ccc(Cl)cc2)c2ccccc21` (configuration not stated), the TGI [2] was > 100 µM, the TGI [12] was > 100 µM and the TGI [3] was > 100 µM. The TGI [5] was > 100 µM, the TGI [13] was 78.2 µM and the TGI [6] was > 100 µM. The TGI [11] was > 100 µM.
Work on `CO/N=C(\C)c1cccc(Nc2nc3ccccc3c3occc23)c1` yielded a TGI [1] of 22.8 µM.
With `CN(C)c1ccc(/C=c2/c3ccccc3n3c2cc(NC(=O)NCCC[N+](C)(C)C)[n+]3C)cc1` the TGI [1] was > 100 µM.
For `CS(=O)(=O)OCCN(CCOS(C)(=O)=O)c1ccc(/C=N/Nc2ncnc3nc[nH]c23)cc1`, the TGI [2] was 74.9 µM, the TGI [12] was 26.2 µM and the TGI [3] was 35.4 µM. It also gave a TGI [4] of 70.7 µM, a TGI [5] of 58 µM and a TGI [6] of 51 µM. It also gave a TGI [10] of 75.5 µM and a TGI [11] of 38.8 µM.
For `O=C(CSc1nc2ccc(I)cc2c(=O)n1Cc1ccccc1)NN1C(=O)c2ccccc2C1=O`, the TGI [1] was 32 µM.
With `Cc1ccc(N=NC(C2=NC(=O)CS2)c2nc3ccccc3[nH]2)cc1` (configuration not stated) the TGI [2] was > 100 µM, the TGI [12] was > 100 µM and the TGI [3] was > 100 µM. The TGI [5] was > 100 µM, the TGI [13] was > 100 µM and the TGI [6] was > 100 µM. For the same molecule, the TGI [11] was > 100 µM.
`Cc1c2cc[n+](C)cc2c(C)c2c1oc1ccccc12` was tested, and the TGI [2] was > 59.5 µM, the TGI [12] was 7.86 µM and the TGI [3] was 16.7 µM. The TGI [4] was > 63.7 µM, the TGI [5] was > 64.1 µM and the TGI [13] was 15.8 µM. For the same molecule, the TGI [6] was 8.99 µM, the TGI [1] was 35.2 µM and the TGI [10] was 29.6 µM.
`COC(=O)NC1C(C)OC(OC2C/C=C(/C)C3C=CC4C(OC5CC(OC6CC(OC7CC(O)C(O)C(C)O7)C(OC7CC(O)C(OC)C(C)O7)C(C)O6)C(O)C(C)O5)C(C)CC(C)C4C3(C)/C(O)=C3\C(=O)OC4(CC(C)C(CO)=CC4/C=C\2C)C3=O)CC1(C)[N+](=O)[O-]` (configuration not stated) was tested, and the TGI [1] was 40.2 µM.
In the case of `CCCCCCCN(CCCCCCC)CC(O)c1cc2ccccc2c2cc(Br)ccc12` (configuration not stated), the TGI [1] was > 100 µM.
With `Cc1[nH]n(-c2ccccc2)c(=O)c1C(N(CCc1ccccc1)C1=NCC(C)S1)(C(F)(F)F)C(F)(F)F` (configuration not stated) the TGI [1] was 65.6 µM.
In the case of `COC(=O)c1ccccc1C1=C([N+](=O)[O-])C(c2cccc(Br)c2)C(C#N)=C(N)O1` (configuration not stated), the TGI [1] was > 100 µM.
For `COc1cc([N+](=O)[O-])ccc1NC(=O)c1cccc([N+](=O)[O-])c1O`, the TGI [2] was > 100 µM, the TGI [12] was > 100 µM and the TGI [4] was 61 µM. The TGI [5] was > 100 µM, the TGI [13] was > 100 µM and the TGI [6] was > 100 µM. The TGI [14] was > 100 µM and the TGI [10] was > 100 µM.
`CCc1ccc2c(c1)C(=O)c1c-2n(CCCN)c(=O)c2cc([N+](=O)[O-])ccc12` gave a GI50 [1] of 1.53 µM and a TGI [1] of 2.98 µM.
For `N=C(N)SCc1cccc([N+](=O)[O-])c1`, the TGI [2] was 97.6 µM, the TGI [12] was 90.7 µM and the TGI [3] was > 100 µM. For the same molecule, the TGI [4] was 89.1 µM, the TGI [5] was > 90.6 µM and the TGI [6] was > 100 µM. For the same molecule, the TGI [7] was 33.6 µM, the TGI [8] was 41.2 µM and the TGI [9] was 98.6 µM. For the same molecule, the TGI [10] was > 100 µM and the TGI [11] was 71.8 µM.
In the case of `CC1(C=O)CCC23COC4(CCC5C6(C)CCC(OC7OCC(OC8OC(CO)C(O)C(OC9OC(CO)C(O)C(O)C9O)C8OC8OCC(O)C(O)C8O)C(O)C7OC7OC(CO)C(O)C(O)C7O)C(C)(C)C6CCC5(C)C4(C)CC2O)C3C1` (configuration not stated), the TGI [1] was 0.95 µM.
`CN(C)CCCN1c2ccc([N+](=O)[O-])cc2CCc2cc([N+](=O)[O-])ccc21` was tested, and the TGI [1] was 30.3 µM and 22.6 µM.
In the case of `c1ccc([P+](c2ccccc2)(c2ccccc2)c2ccc(-c3ccc([P+](c4ccccc4)(c4ccccc4)c4ccccc4)cc3)cc2)cc1`, the TGI [1] was 63.5 µM.
With `C[n+]1c2ccccc2c(CNC(CS)C(=O)O)c2ccccc21` (configuration not stated) the TGI [2] was > 100 µM, the TGI [3] was 57.3 µM and the TGI [4] was > 100 µM. For the same molecule, the TGI [5] was 82 µM, the TGI [13] was > 100 µM and the TGI [6] was 90.6 µM. For the same molecule, the TGI [14] was 70.4 µM, the TGI [10] was > 100 µM and the TGI [11] was 40.3 µM.
